Measurements taken from patent publication US20200281923A1, “USE OF PARP INHIBITOR IN TREATING CHEMOTHERAPY-RESISTANT OVARIAN CANCER OR BREAST CANCER” (JIANGSU HENGRUI MEDICINE CO., LTD., priority 2017, published 2020).

Assays:
advanced prostate cancer = advanced prostate cancer patients with DNA repair gene mutations; phase II clinical trial; cited from earlier work
recurrent ovarian cancer = assay: Phase I clinical trial of compound A alone in recurrent chemotherapy-resistant ovarian cancer; format: in vivo, human; details: daily dose of 120 mg
Excerpt: Objective response rate (ORR) refers to the proportion of patients whose tumor shrinks to a certain extent and remains for a certain period of time, including cases of CR and PR. The response evaluation criteria in solid tumors (RECIST 1.1 criteria) are employed to assess tumor objective response. The subject must have measurable tumor lesions at baseline. The efficacy assessment criteria are classified into complete response (CR), partial response (PR), stable disease (SD), and progressive disease (PD) according to the RECIST 1.1 criteria.
Disease control rate (DCR) refers to the percentage of confirmed cases of complete response, partial response and stable disease (≥eight weeks) in patients with evaluable efficacy.
In the phase I clinical trial, the dose of compound A was 120 mg/d and above. 23 patients with recurrent ovarian cancer diagnosed by histology or cytology, who had received standard treatment failure, were enrolled. These patients had been subjected to at least second-line systemic chemotherapy during the recurrence and metastasis stage of ovarian cancer. The chemotherapy regimen was a platinum-based chemotherapy regimen. These patients were platinum-based treatment-resistant, or were intolerant to the chemotherapy toxicity during the treatment.
Compound A: the initial dose was 10 mg, 20 mg, 40 mg, 60 mg, 80 mg, 100 mg or 150 mg, administrated orally twice a day; or 120 mg or 160 mg, administrated orally once a day.

[1] = platinum-resistant ovarian cancer without BRCA mutations, 13 cases
[2] = recurrent platinum-resistant ovarian cancer, 22 evaluable cases out of 23

Row | Structure (SMILES) | response (advanced prostate cancer) [%] | disease control rate (DCR) (recurrent ovarian cancer; [1]) [%] | objective response rate (ORR) (recurrent ovarian cancer; [1]) [%] | disease control rate (DCR) (recurrent ovarian cancer; [2]) [%] | objective response rate (ORR) (recurrent ovarian cancer; [2]) [%]
1 | O=C(c1cc(Cc2n[nH]c(=O)c3ccccc23)ccc1F)N1CCN(C(=O)C2CC2)CC1 [Olaparib] | 88 |  |  |  | 
2 | O=C(c1cc(Cc2n[nH]c(=O)c3ccccc23)ccc1F)N1CCn2nc(C(F)(F)F)nc2C1 [compound A] |  | 84.6 | 15.4 | 81.8 | 18.2
